Several values for one entry are separate records, joined by “and”; a condition that tells them apart may be missing. Equal values may be shown once. Numbers after ± are expanded uncertainties.
Experiments:
[1] = xn = mol fraction of the nth substance listed; settings: 101 kPa, Liquid, Vibrating tube method, x1 = 1
[2] = 101 kPa, Liquid, Vibrating tube method

| Compound | mass density ([1]; 288.15 K) [kg/m3] | mass density ([1]; 298.15 K) [kg/m3] | mass density ([1]; 353.15 K) [kg/m3] | mass density ([2]; 288.15 K) | mass density ([2]; 298.15 K) | mass density ([2]; 353.15 K) |
| --- | --- | --- | --- | --- | --- | --- |
| c1ccncc1 [pyridine] + NCCO | 988.041 ± 0.2 | 978.145 ± 0.2 | 921.953 ± 0.21 |  |  |  |
| CCCCCCC [heptane] + Cc1ccccc1 |  | 679.537 ± 0.26 |  |  |  |  |
| NCCO [2-aminoethan-1-ol] |  |  |  | 1019.87 ± 0.2 kg/m3 | 1012.12 ± 0.2 kg/m3 | 968.332 ± 0.2 kg/m3 |
| CCCCCCC [heptane] |  |  |  |  | 679.537 ± 0.26 kg/m3 |  |
| c1ccncc1 [pyridine] |  |  |  | 988.041 ± 0.2 kg/m3 and 988.343 ± 0.2 kg/m3 | 978.145 ± 0.2 kg/m3 and 978.086 ± 0.2 kg/m3 | 921.953 ± 0.21 kg/m3 and 921.952 ± 0.21 kg/m3 |
| Cc1ccccc1 [toluene] |  |  |  |  | 862.222 ± 0.21 kg/m3 |  |
| c1ccncc1 [pyridine] + CN(CCO)CCO | 988.343 ± 0.2 | 978.086 ± 0.2 | 921.952 ± 0.21 |  |  |  |
| CN(CCO)CCO [N-methyldiethanolamine] |  |  |  | 1046.36 ± 0.21 kg/m3 | 1036.81 ± 0.21 kg/m3 | 994.015 ± 0.2 kg/m3 |

From the NIST ThermoML archive (doi:10.1021/je400184t)
